Results on 29 compounds are retold here after patent US10239887B2, “Positive allosteric modulators of the muscarinic acetylcholine receptor M4” (Vanderbilt University, priority 2016, dated 2019).

Where a name gives a salt, the structure may show the parent alone. Some results are limits rather than exact numbers.

By Emax is commonly meant the greatest response seen or fitted, relative to the assay's reference. In general, EC50 refers to the concentration at which the effect is half-maximal.

This experiment addresses T1, human mAChR M4 (Homo sapiens, UniProt P08173).
T1 sequence (P08173 1-479): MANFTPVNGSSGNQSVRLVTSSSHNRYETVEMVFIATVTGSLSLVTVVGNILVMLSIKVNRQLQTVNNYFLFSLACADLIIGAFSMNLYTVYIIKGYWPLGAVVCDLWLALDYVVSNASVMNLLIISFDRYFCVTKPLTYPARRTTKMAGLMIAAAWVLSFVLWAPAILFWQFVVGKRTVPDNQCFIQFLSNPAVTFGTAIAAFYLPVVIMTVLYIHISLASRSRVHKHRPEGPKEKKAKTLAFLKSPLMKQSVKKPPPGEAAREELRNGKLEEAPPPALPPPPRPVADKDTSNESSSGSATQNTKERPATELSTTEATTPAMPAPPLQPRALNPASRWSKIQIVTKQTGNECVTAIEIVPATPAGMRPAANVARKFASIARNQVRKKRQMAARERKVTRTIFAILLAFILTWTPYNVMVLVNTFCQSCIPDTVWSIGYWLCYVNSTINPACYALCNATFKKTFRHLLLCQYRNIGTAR
Kind of experiment: mAChR M4 cell-based functional assay (calcium flux), human M4. The settings on record: for Emax / Emax (%): % ACh maximum at 30 μM; for EC50: Human M4 EC50 (nM).

The mark [1] stands for this setting: Table 10, calcium flux, PAM activity with EC20 acetylcholine.
Setting [2] is: Table 11, calcium flux, PAM activity with EC20 acetylcholine.

For the compound `Cc1cc(C)c2c(n1)oc1c(NC3CN(c4ncc(F)cn4)C3)ncnc12` [Compound 289, N-[1-(5-fluoropyrimidin-2-yl)azetidin-3-yl]-7,9-dimethyl-pyrido[3′,2′:4,5]furo[3,2-d]pyrimidin-4-amine hydrochloride], the maximal response (Emax) (Table 10) amounted to 34.9%. Regarding `Cc1cc(C)c2c(n1)oc1c(NC3CN(c4cc(Cl)ncc4Cl)C3)ncnc12` [Compound 290, N-[1-(2,5-dichloro-4-pyridyl)azetidin-3-yl]-7,9-dimethyl-pyrido[3′,2′:4,5]furo[3,2-d]pyrimidin-4-amine dihydrochloride], the half-maximal effective concentration (EC50) under setting [1] is 1490 nM. Also, where the note is “Table 10”, the “Emax (%)” value stood at 49.29%.

In the case of `Cc1cc(C)c2c(n1)oc1c(NCc3ccc(S(C)(=O)=O)cc3)ncnc12` [Compound 292, 7,9-dimethyl-N-[(4-methylsulfonylphenyl)methyl]pyrido[3′,2′:4,5]furo [3,2-d]pyrimidin-4-amine hydrochloride], the EC50 under setting [1] was 1200 nM. For the same compound, the Emax (Table 10) stood at 42.5%. Consider `Cc1cc(C)c2c(n1)oc1c(NC3CCC3)ncnc12` [Compound 293, N-cyclobutyl-7,9-dimethyl-pyrido[3′,2′:4,5]furo[3,2-d]pyrimidin-4-amine hydrochloride], for which, under setting [1], the EC50 stood at 1590 nM. Where the note is “Table 10”, the “Emax (%)” value is listed as 44.18%. `Cc1cc(C)c2c(n1)oc1c(NC3CC3c3ccc(F)c(F)c3)ncnc12` (stereo not drawn) [Compound 294, N-[2-(3,4-difluorophenyl)cyclopropyl]-7,9-dimethyl-pyrido[3′,2′:4,5]furo [3,2-d]pyrimidin-4-amine hydrochloride]: the EC50 under setting [1] was found to be 3380 nM. Also, the Emax (Table 10) was determined as 56.3%. With `Cc1cc(C)c2c(n1)oc1c(NC3CC3)ncnc12` [Compound 295, N-cyclopropyl-7,9-dimethyl-pyrido[3′,2′:4,5]furo[3,2-d]pyrimidin-4-amine hydrochloride], the “Emax (%)” value (Table 10) turned out to be 63.93%.

For the compound `Cc1cc(C)c2c(n1)oc1c(N3CC4(COC4)C3)ncnc12` [Compound 296, 7,9-dimethyl-4-(2-oxa-6-azaspiro[3.3]heptan-6-yl)pyrido[3′,2′:4,5]furo[3,2-d]pyrimidine], the concentration for a half-maximal effect (EC50) under setting [1] was determined as 3370 nM. Besides, the Emax (Table 10) was 37.7%.

As for `Cc1nnc2oc3c(NC4CN(c5ccc(F)c(F)c5)C4)ncnc3c2c1C` [Compound 297, N-[1-(3,4-difluorophenyl)azetidin-3-yl]-3,4-dimethyl-pyrimido[4′,5′:4,5]furo [2,3-c]pyridazin-8-amine], under setting [1], the concentration for a half-maximal effect (EC50) is 59.4 nM. Also, the Emax (Table 10) turned out to be 73%.

As to `Cc1nnc2oc3c(NCc4ccc(C5(O)CCC5)cc4)ncnc3c2c1C` [Compound 298, 1-[4-[[(3,4-dimethylpyrimido [4′,5′:4,5]furo[2,3-c]pyridazin-8-yl)amino]methyl]phenyl]cyclobutanol], the EC50 under setting [1] came out at 862 nM. Also, the maximal response (Emax) (Table 10) is 58.2%. Consider `Cc1nnc2oc3c(NCc4ccc(C(C)(C)O)cc4)ncnc3c2c1C` [Compound 299, 2-[4-[[(3,4-dimethylpyrimido [4′,5′:4,5]furo[2,3-c]pyridazin-8-yl)amino]methyl]phenyl]propan-2-ol], for which the EC50 under setting [1] was found to be 2290 nM. Further, the Emax (Table 10) was determined as 61.2%.

With `Cc1nnc2oc3c(NCc4cccc(C5(O)CCC5)c4)ncnc3c2c1C` [Compound 300, 1-[3-[[(3,4-dimethylpyrimido [4′,5′:4,5]furo[2,3-c]pyridazin-8-yl)amino]methyl]phenyl]cyclobutanol], the Emax (Table 10) is 61.1%.

`Cc1nnc2oc3c(NCc4cccc(C(C)(C)O)c4)ncnc3c2c1C` [Compound 301, 2-[3-[[(3,4-dimethylpyrimido [4′,5′:4,5]furo[2,3-c]pyridazin-8-yl)amino]methyl]phenyl]propan-2-ol]: under “Table 10”, the maximal effect (Emax) was determined as 63.4%.

Consider `Cc1nnc2oc3c(NC4CC4)ncnc3c2c1C` [Compound 302, N-cyclopropyl-3,4-dimethyl-pyrimido [4′,5′:4,5]furo[2,3-c]pyridazin-8-amine], for which the concentration giving a half-maximal response (EC50) under setting [1] turned out to be 1300 nM. For the same compound, under “Table 10”, the maximal response (Emax) came to 66.5%.

Take `Cc1nnc2oc3c(NC4CCC4)ncnc3c2c1C` [Compound 303, N-cyclobutyl-3,4-dimethyl-pyrimido [4′,5′:4,5]furo[2,3-c]pyridazin-8-amine]: under setting [1], the half-maximal effective concentration (EC50) was 1530 nM. Further, the maximum response (Emax) (Table 10) turned out to be 54.8%. For `Cc1nnc2oc3c(NC4CCCC4)ncnc3c2c1C` [Compound 304, N-cyclopentyl-3,4-dimethyl-pyrimido [4′,5′:4,5]furo[2,3-c]pyridazin-8-amine], in that order: 818 nM and 45.9%. For `Cc1nnc2oc3c(NC4CC5(COC5)C4)ncnc3c2c1C` [Compound 305, 3,4-dimethyl-N-(2-oxaspiro[3.3]heptan-6-yl)pyrimido[4′,5′:4,5] furo[2,3-c]pyridazin-8-amine], the EC50 (Table 10, unit μM (bounds)) was more than 10000 nM. Besides, where the note is “Table 10”, the Emax was found to be 25.6%. On to `Cc1nnc2oc3c(NC4CC(F)(F)C4)ncnc3c2c1C` [Compound 306, N-(3,3-difluoro-cyclobutyl)-3,4-dimethyl-pyrimido [4′,5′:4,5]furo[2,3-c]pyridazin-8-amine], for which the EC50 under setting [1] is 1750 nM. The maximum response (Emax) (Table 10) is 57.9%.

For the compound `Cc1nnc2oc3c(N4CC5(COC5)C4)ncnc3c2c1C` [Compound 307, 3,4-dimethyl-8-(2-oxa-6-azaspiro[3.3]heptan-6-yl)pyrimido[4′,5′:4,5] furo[2,3-c]pyridazine], the EC50 under setting [1] stood at 4840 nM. Further, under “Table 10”, the maximum response (Emax) worked out at 46.1%. Turning to `Cc1nnc2oc3c(NCc4ccc(C(C)(C)O)nc4)ncnc3c2c1C` [Compound 308, 2-[5-[[(3,4-dimethylpyrimido [4′,5′:4,5]furo[2,3-c]pyridazin-8-yl)amino]methyl]-2-pyridyl]propan-2-ol], the EC50 under setting [1] turned out to be 9160 nM. The Emax (Table 10) worked out at 59.5%.

On to `COc1ccc(CNc2ncnc3c2oc2nnc(C)c(C)c23)cc1` [Compound 309, N-[(4-methoxyphenyl)methyl]-3,4-dimethyl-pyrimido [4′,5′:4,5]furo[2,3-c]pyridazin-8-amine], for which the half-maximal effective concentration (EC50) under setting [1] was 403 nM. Besides, the Emax (Table 10) stood at 73.6%.

Regarding `COc1cc(F)c(CNc2ncnc3c2oc2nnc(C)c(C)c23)c(F)c1` [Compound 310, N-[(2,6-difluoro-4-methoxy-phenyl)methyl]-3,4-dimethyl-pyrimido[4′,5′:4,5] furo[2,3-c]pyridazin-8-amine], the concentration for a half-maximal effect (EC50) under setting [1] was 845 nM. Moreover, the Emax (Table 10) came to 53.2%. Take `COc1c(F)cc(CNc2ncnc3c2oc2nnc(C)c(C)c23)cc1F` [Compound 311, N-[(3,5-difluoro-4-methoxy-phenyl)methyl]-3,4-dimethyl-pyrimido[4′,5′:4,5] furo[2,3-c]pyridazin-8-amine]: the EC50 under setting [1] was determined as 378 nM. For the same compound, the Emax (Table 10) is 51%.

`Cc1nnc2oc3c(NCc4ccc(C(C)(O)C(F)(F)F)cc4)ncnc3c2c1C` (stereo not drawn) [Compound 312, 2-[4-[[(3,4-dimethylpyrimido [4′,5′:4,5]furo[2,3-c]pyridazin-8-yl)amino]methyl]phenyl]-1,1,1-trifluoro-propan-2-ol]: the EC50 under setting [1] came out at 909 nM. Moreover, the maximal response (Emax) (Table 10) was 70.2%. On to `Cc1nnc2sc3c(NCc4ccc(C(=O)NC5CC5)c(Cl)c4)ncnc3c2c1C` [Compound 313, 2-chloro-N-cyclopropyl-4-[[(3,4-dimethylpyrimido[4′,5′:4,5]thieno[2,3-c]pyridazin-8-yl)amino]methyl]benzamide], for which, under setting [2], the concentration giving a half-maximal response (EC50) turned out to be 166 nM. In addition, the Emax (Table 11) turned out to be 75.2%. On to `Cc1nnc2sc3c(NC4CN(c5ncc(Cl)cc5Cl)C4)ncnc3c2c1C` [Compound 314, N-[1-(3,5-dichloro-2-pyridyl)azetidin-3-yl]-3,4-dimethyl-pyrimido [4′,5′:4,5]thieno[2,3-c] pyridazin-8-amine], for which the concentration for a half-maximal effect (EC50) under setting [2] was found to be 1830 nM. The maximal response (Emax) (Table 11) is 71.5%. Regarding `Cc1nnc2sc3c(NC4CN(c5ncc(Cl)cc5F)C4)ncnc3c2c1C` [Compound 315, N-[1-(5-chloro-3-fluoro-2-pyridyl)azetidin-3-yl]-3,4-dimethyl-pyrimido[4′,5′:4,5]thieno [2,3-c]pyridazin-8-amine], under setting [2], the EC50 was found to be 659 nM. For the same compound, the maximum response (Emax) (Table 11) is 74.9%.

Turning to `Cc1nnc2sc3c(NCc4ccc(C(=O)NC5CCC5)c(Cl)c4)ncnc3c2c1C` [Compound 316, 2-chloro-N-cyclobutyl-4-[[(3,4-dimethylpyrimido [4′,5′:4,5]thieno[2,3-c]pyridazin-8-yl)amino]methyl]benzamide], the concentration giving a half-maximal response (EC50) under setting [2] turned out to be 216 nM. Further, the Emax (Table 11) was 83.8%. As for `Cc1nnc2sc3c(NCc4ccc(C(=O)NC5CCCC5)c(Cl)c4)ncnc3c2c1C` [Compound 317, 2-chloro-N-cyclopentyl-4-[[(3,4-dimethylpyrimido [4′,5′:4,5]thieno[2,3-c]pyridazin-8-yl)amino]methyl]benzamide], the concentration for a half-maximal effect (EC50) under setting [2] was determined as 323 nM. In addition, for the setting “Table 11”, the Emax came to 75.1%. On the same counts, the results for `Cc1nnc2sc3c(NCc4ccc(C(=O)NC(C)C)c(Cl)c4)ncnc3c2c1C` [Compound 318, 2-chloro-4-[[(3,4-dimethylpyrimido[4′,5′:4,5]thieno[2,3-c]pyridazin-8-yl)amino]methyl]-N-isopropyl-benzamide] are 193 nM and 81.7%.
